According to patent US20030187048A1, “Method for inhibiting skin lesion formation using histamine as the active ingredient” (priority 1991, published 2003):
Several values for one entry are separate records, joined by “and”; a condition that tells them apart may be missing. Equal entries are not always repeated. Where two headings read alike, the source gives them in different places.

What was measured:
[1] = system: cold sore (herpes labialis) lesions
[2] = system: pressure sores (decubitus ulcers); conditions: for Percent Reduction in Area from original Size / Mean Percent Reduction/Week: per patient; for Mean Percent Reduction/Week: lesion area from original size
Description: Treatment included standardized decubitus ulcer care for all pressure sores as determined by the protocol for the study.
Prospective subjects were considered for the study if their pressure sores (decubitus ulcers) were free from infection and either a Stage I or a Stage II lesion.
Patients were randomly assigned to one of four active ingredient levels being evaluated. […] Assignment of subjects to the four gel concentrations was unknown to the investigator.
The topical application of all gel concentrations to their respective, randomly assigned patients occurred once daily following careful rinsing of the pressure sore with sterile normal saline. After application of the appropriate gel concentration, each pressure sore was covered with a bio-occlusive dressing to minimize wound contamination.
Clinical evaluation included weekly classification of the stage of the pressure sores, the size and depth of the sores, the color, signs of infection (if present), odor (if present), and patient cooperation with treatment.

NCCc1c[nH]cn1 [IEP, 1H-imidazole-4-ethanamine,phosphate] was tested, and the “Mean percentage decay rate of lesions, Conc. Mean” value (shortened to “Mean percentage decay rate”) ([1]; 0.00083% gel, 4 patients) was 23.1%, the “Average % reduction in lesions from original size” value (from here on “Average % reduction in lesions”) ([1]; 0.00083% gel, 48 Hours) was 14.0% and the “Average % reduction in lesions” value ([1]; 0.00083% gel, 72 Hours) was 27.6%. The “Average % reduction in lesions” value ([1]; 0.00083% gel, 96 Hours) was 44.3%, the “Burning, average percent reduction of original symptom” value (“Burning, average percent reduction” for short) ([1]; 0.00083% gel, Day 1) was 20.9% and the “Itching, average percent reduction of original symptom” value (“Itching, average percent reduction” for short) ([1]; 0.00083% gel, Day 1) was 41.7%. The “Pain, average percent reduction of original symptom” value (“Pain, average percent reduction” for short) ([1]; 0.00083% gel, Day 1) was 34.2%, the “Spreading, average percent reduction of original symptom” value (“Spreading, average percent reduction” below) ([1]; 0.00083% gel, Day 1) was 0% and the “Swelling, average percent reduction of original symptom” value (from here on “Swelling, average percent reduction”) ([1]; 0.00083% gel, Day 1) was 10.4%. The “Burning, average percent reduction” value ([1]; 0.00083% gel, Day 2) was 66.7%, the “Itching, average percent reduction” value ([1]; 0.00083% gel, Day 2) was 47.8% and the “Pain, average percent reduction” value ([1]; 0.00083% gel, Day 2) was 51.7%. For the same compound, the “Spreading, average percent reduction” value ([1]; 0.00083% gel, Day 2) was 0%, the “Swelling, average percent reduction” value ([1]; 0.00083% gel, Day 2) was 37.5% and the “Burning, average percent reduction” value ([1]; 0.00083% gel, Day 3) was 58.3%. For the same compound, the “Itching, average percent reduction” value ([1]; 0.00083% gel, Day 3) was 16.7%, the “Pain, average percent reduction” value ([1]; 0.00083% gel, Day 3) was 51.7% and the “Spreading, average percent reduction” value ([1]; 0.00083% gel, Day 3) was 11.1%. For the same compound, the “Burning, average percent reduction” value ([1]; 0.00083% gel, Day 4) was 75.0%, the “Itching, average percent reduction” value ([1]; 0.00083% gel, Day 4) was 11.1% and the “Pain, average percent reduction” value ([1]; 0.00083% gel, Day 4) was 65.0%. The “Spreading, average percent reduction” value ([1]; 0.00083% gel, Day 4) was 22.2%, the “Swelling, average percent reduction” value ([1]; 0.00083% gel, Day 4) was 75.0% and the “Burning, average percent reduction” value ([1]; 0.00083% gel, Day 5) was 77.8%. The “Itching, average percent reduction” value ([1]; 0.00083% gel, Day 5) was 41.7%, the “Pain, average percent reduction” value ([1]; 0.00083% gel, Day 5) was 64.4% and the “Spreading, average percent reduction” value ([1]; 0.00083% gel, Day 5) was 50.0%. The “Swelling, average percent reduction” value ([1]; 0.00083% gel, Day 5) was 55.6%, the “Burning, average percent reduction” value ([1]; 0.00083% gel, Day 6) was 66.7% and the “Itching, average percent reduction” value ([1]; 0.00083% gel, Day 6) was 75.0%. For the same compound, the “Pain, average percent reduction” value ([1]; 0.00083% gel, Day 6) was 66.7%, the “Spreading, average percent reduction” value ([1]; 0.00083% gel, Day 6) was 66.7% and the “Swelling, average percent reduction” value ([1]; 0.00083% gel, Day 6) was 0%. For the same compound, the “Mean percentage decay rate” value ([1]; 0.0033% gel, 5 patients) was 24.1%, the “Average % reduction in lesions” value ([1]; 0.0033% gel, 24 Hours) was 11.8% and the “Average % reduction in lesions” value ([1]; 0.0033% gel, 48 Hours) was 44.6%. The “Average % reduction in lesions” value ([1]; 0.0033% gel, 72 Hours) was 57.8%, the “Average % reduction in lesions” value ([1]; 0.0033% gel, 96 Hours) was 61.6% and the “Burning, average percent reduction” value ([1]; 0.0033% gel, Day 1) was 21.7%. For the same compound, the “Itching, average percent reduction” value ([1]; 0.0033% gel, Day 1) was 23.4%, the “Spreading, average percent reduction” value ([1]; 0.0033% gel, Day 1) was 50.0% and the “Burning, average percent reduction” value ([1]; 0.0033% gel, Day 2) was 37.5%. For the same compound, the “Itching, average percent reduction” value ([1]; 0.0033% gel, Day 2) was 55.0%, the “Spreading, average percent reduction” value ([1]; 0.0033% gel, Day 2) was 50.0% and the “Swelling, average percent reduction” value ([1]; 0.0033% gel, Day 2) was 45.4%. For the same compound, the “Burning, average percent reduction” value ([1]; 0.0033% gel, Day 3) was 62.5%, the “Itching, average percent reduction” value ([1]; 0.0033% gel, Day 3) was 58.5% and the “Pain, average percent reduction” value ([1]; 0.0033% gel, Day 3) was 33.3%. For the same compound, the “Spreading, average percent reduction” value ([1]; 0.0033% gel, Day 3) was 16.7%, the “Swelling, average percent reduction” value ([1]; 0.0033% gel, Day 3) was 55.8% and the “Burning, average percent reduction” value ([1]; 0.0033% gel, Day 4) was 68.8%. For the same compound, the “Itching, average percent reduction” value ([1]; 0.0033% gel, Day 4) was 75.0%, the “Pain, average percent reduction” value ([1]; 0.0033% gel, Day 4) was 66.8% and the “Spreading, average percent reduction” value ([1]; 0.0033% gel, Day 4) was 100%. For the same compound, the “Swelling, average percent reduction” value ([1]; 0.0033% gel, Day 4) was 55.9%, the “Burning, average percent reduction” value ([1]; 0.0033% gel, Day 5) was 100% and the “Itching, average percent reduction” value ([1]; 0.0033% gel, Day 5) was 82.5%. For the same compound, the “Pain, average percent reduction” value ([1]; 0.0033% gel, Day 5) was 66.7%, the “Spreading, average percent reduction” value ([1]; 0.0033% gel, Day 5) was 100% and the “Swelling, average percent reduction” value ([1]; 0.0033% gel, Day 5) was 65.0%. For the same compound, the “Burning, average percent reduction” value ([1]; 0.0033% gel, Day 6) was 87.5%, the “Itching, average percent reduction” value ([1]; 0.0033% gel, Day 6) was 100% and the “Pain, average percent reduction” value ([1]; 0.0033% gel, Day 6) was 83.4%. For the same compound, the “Swelling, average percent reduction” value ([1]; 0.0033% gel, Day 6) was 66.7%, the “Mean percentage decay rate” value ([1]; 0.0067% gel, 4 patients) was 54.4% and the “Average % reduction in lesions” value ([1]; 0.0067% gel, 24 Hours) was 37.5%. The “Average % reduction in lesions” value ([1]; 0.0067% gel, 48 Hours) was 67.0%, the “Average % reduction in lesions” value ([1]; 0.0067% gel, 72 Hours) was 86.2% and the “Average % reduction in lesions” value ([1]; 0.0067% gel, 96 Hours) was 98.9%. For the same compound, the “Burning, average percent reduction” value ([1]; 0.0067% gel, Day 1) was 50.0%, the “Itching, average percent reduction” value ([1]; 0.0067% gel, Day 1) was 50.0% and the “Pain, average percent reduction” value ([1]; 0.0067% gel, Day 1) was 66.7%. The “Spreading, average percent reduction” value ([1]; 0.0067% gel, Day 1) was 66.7%, the “Swelling, average percent reduction” value ([1]; 0.0067% gel, Day 1) was 50.0% and the “Burning, average percent reduction” value ([1]; 0.0067% gel, Day 2) was 100%. The “Itching, average percent reduction” value ([1]; 0.0067% gel, Day 2) was 100%, the “Pain, average percent reduction” value ([1]; 0.0067% gel, Day 2) was 83.4% and the “Spreading, average percent reduction” value ([1]; 0.0067% gel, Day 2) was 100%. The “Swelling, average percent reduction” value ([1]; 0.0067% gel, Day 2) was 83.3%, the “Burning, average percent reduction” value ([1]; 0.0067% gel, Day 3) was 100% and the “Itching, average percent reduction” value ([1]; 0.0067% gel, Day 3) was 100%. For the same compound, the “Pain, average percent reduction” value ([1]; 0.0067% gel, Day 3) was 55.6%, the “Spreading, average percent reduction” value ([1]; 0.0067% gel, Day 3) was 100% and the “Swelling, average percent reduction” value ([1]; 0.0067% gel, Day 3) was 54.2%. For the same compound, the “Burning, average percent reduction” value ([1]; 0.0067% gel, Day 4) was 100%, the “Itching, average percent reduction” value ([1]; 0.0067% gel, Day 4) was 75.0% and the “Pain, average percent reduction” value ([1]; 0.0067% gel, Day 4) was 55.6%. For the same compound, the “Spreading, average percent reduction” value ([1]; 0.0067% gel, Day 4) was 100%, the “Swelling, average percent reduction” value ([1]; 0.0067% gel, Day 4) was 61.7% and the “Burning, average percent reduction” value ([1]; 0.0067% gel, Day 5) was 100%. For the same compound, the “Itching, average percent reduction” value ([1]; 0.0067% gel, Day 5) was 100%, the “Pain, average percent reduction” value ([1]; 0.0067% gel, Day 5) was 100% and the “Spreading, average percent reduction” value ([1]; 0.0067% gel, Day 5) was 100%. For the same compound, the “Swelling, average percent reduction” value ([1]; 0.0067% gel, Day 5) was 66.7%, the “Spreading, average percent reduction” value ([1]; 0.0067% gel, Day 6) was 100% and the “Swelling, average percent reduction” value ([1]; 0.0067% gel, Day 6) was 100%. For the same compound, the “Reducing lesion size over time vs placebo (analysis of variance)” value ([1]; 0.0067% treatment vs placebo, p<0.05) was “significantly more effective”, the Untoward reactions ([1]; in vivo) was “no untoward reactions” and the “Percent Reduction in Area from original Size” value (shortened to “Percent Reduction in Area”) ([2]; 0.0045% IEP gel, end of treatment week 1) was 28.5% and 29.8%. The “Percent Reduction in Area” value ([2]; 0.0045% IEP gel, end of week 2) was 33.6% and 66.6%, the “Percent Reduction in Area” value ([2]; 0.0045% IEP gel, end of week 3) was 51.6% and 72.8% and the “Percent Reduction in Area” value ([2]; 0.0045% IEP gel, end of week 4) was 71.7% and 84.9%. For the same compound, the “Percent Reduction in Area” value ([2]; 0.0045% IEP gel, end of week 5) was 78.8% and 90.1%, the “Percent Reduction in Area” value ([2]; 0.0045% IEP gel, end of week 6) was 87.0% and 95.6% and the “Percent Reduction in Area” value ([2]; 0.0045% IEP gel, end of week 7) was 91.4% and 97.5%. For the same compound, the “Percent Reduction in Area” value ([2]; 0.0045% IEP gel, end of week 8) was 92.3% and 99.4%, the “Percent Reduction in Area” value ([2]; 0.0045% IEP gel, end of week 9) was 92.3% and 99.4% and the “Percent Reduction in Area” value ([2]; 0.0045% IEP gel, end of week 10) was 99.4%. For the same compound, the “Mean Percent Reduction/Week” value ([2]; 0.0045% gel) was 10.3% and 12.1%, the “Percent Reduction in Area” value ([2]; 0.0069% IEP gel, end of week 1) was 48.6% and 55.6% and the “Percent Reduction in Area” value ([2]; 0.0069% IEP gel, end of week 2) was 77.1% and 60.0%. The “Percent Reduction in Area” value ([2]; 0.0069% IEP gel, end of week 3) was 77.1% and 78.2%, the “Percent Reduction in Area” value ([2]; 0.0069% IEP gel, end of week 4) was 100% and 81.3% and the “Percent Reduction in Area” value ([2]; 0.0069% IEP gel, end of week 5) was 84.4%. The “Percent Reduction in Area” value ([2]; 0.0069% IEP gel, end of week 6) was 88.9%, the “Percent Reduction in Area” value ([2]; 0.0069% IEP gel, end of week 7) was 100% and the “Mean Percent Reduction/Week” value ([2]; 0.0069% gel) was 14.3% and 25.0%. The “Percent Reduction in Area” value ([2]; 0.009% IEP gel, end of week 1) was 66.7% and 56.5%, the “Percent Reduction in Area” value ([2]; 0.009% IEP gel, end of week 2) was 100.0% and 56.5% and the “Percent Reduction in Area” value ([2]; 0.009% IEP gel, end of week 3) was 100.0%. The “Mean Percent Reduction/Week” value ([2]; 0.009% gel) was 50.0% and 40.0%, the “Reducing the size of pressure sores vs placebo gel” value ([2]; 0.009% vs 0%, mean percent reduction in area per week, p<0.05) was “statistically significantly more effective” and the Untoward effects ([2]; in vivo) was “no untoward effects”.
